In PMC12735718, “Novel Adamantane–Sclareol Hybrids Exploit ROS Vulnerability to Overcome Multidrug-Resistance in Glioblastoma Cells” (Molecules, 2025):

Experiments:
[1] = test system: ASK1 protein in U87-TxR cells; assay: ASK1 protein expression by flow cytometry, U87-TxR; assay type: cell-based, human; conditions: 48 h; for ASK1 protein levels: 2 µM and 4 µM
Description: (§1) Flow cytometry was used to assess TrxR1 and ASK1 protein expression in the U87 and U87-TxR cell lines. Cells were seeded and allowed to attach overnight before exposure to compounds 2 and 5 at final concentrations of 2 μM and 4 μM. After 48 h treatment, cells were collected by trypsinization, rinsed with PBS, and subsequently fixed in 4% PFA for 10 min at room temperature. For permeabilization, ice-cold absolute methanol was added, and the samples were maintained at −20 °C overnight. Following this step, cells were washed in PBS and incubated for 1 h in 0.5% BSA/PBS to block nonspecific binding. Pelleted cells were then resuspended in primary antibodies diluted in 0.5% BSA/PBS [(ASK1, 1:200 (ab45178, Abcam, Cambridge, UK); TrxR1, 1:500 (ab124954, Abcam, Cambridge, UK)] and incubated overnight at +4 °C. Cells were then washed in PBS and incubated for 1 h at room temperature in the dark with fluorescently labeled anti-rabbit IgG secondary antibody (Alexa Fluor 488, ab150097, Abcam, Cambridge, UK), diluted 1:1000 in 0.5% BSA/PBS. Following incubation, samples were washed, resuspended in cold PBS, and analyzed by flow cytometry. A minimum of 10,000 events per sample were acquired, and fluorescence was detected in a green fluorescence channel (525 nm). Data acquisition and processing were performed using CytExpert software (version 2.4.0.28; Beckman Coulter, Indianapolis, IN, USA).

[2] = test system: P-gp; design: method as in PMID 40939538; conditions: non-small cell lung carcinoma sensitive and MDR P-gp-overexpressing cells ref 23; cited from earlier work
[3] = test system: TrxR (SH-SY5Y cell lysate); assay: Colorimetric detection of cell lysate TrxR activity (DTNB); assay type: biochemical, human; conditions: 50 µM, DTNB absorbance at 412 nm over 20 min
Text: We further analyzed the potential of adamantane–sclareol hybrids to inhibit TrxR enzyme activity using a colorimetric assay for the detection of TrxR activity in cell lysates. This kinetic assay is based on the ability of TrxR to reduce its substrate 5,5ʹ-dithiobis(2-nitrobenzoic acid) (DTNB) to the yellow product 5-thio-2-nitrobenzoic acid (TNB) in the presence of NADPH. The absorbance of the produced TNB is considered equivalent to the enzymic activity of TrxR. In the kinetic assay, the absorbance of DTNB was measured over 20 min, resulting in a curve showing the dependence of absorbance on time.
TrxR enzyme activity in cell lysate was determined by the reduction of the TrxR substrate DTNB to the yellow product TNB in the presence of NADPH (Acros Organics, Thermo Fisher Scientific, Waltham, MA, USA). Lysate from human neuroblastoma SH-SY5Y cells was used for the TrxR assay. SH-SY5Y cells were grown to 80% confluence, washed twice with PBS, and detached using Hanks-based enzyme-free dissociation solution (Millipore, Billeri-ca, MA, USA). Collected cells were centrifuged at 2000 rpm for 3 min and rinsed in PBS buffer. After additional centrifugation, cells were lysed on ice using Lysis Buffer (50 mM Tris, 150 mM NaCl, 1 mM EDTA, 1% NP40, 0.1% SDS, 0.5% Na-deoxycholate, pH 7.8) containing protease inhibitor mix G (SERVA Electrophoresis GmbH, Heidelberg, Germany) and phosphatase inhibitor cocktail 3 (Sigma-Aldrich, Darmstadt, Germany). The cell lysates were centrifuged at 16,000× g for 15 min at 4 °C. The protein concentrations of the supernatants were determined using a Pierce^TM BCA protein assay kit (Thermo Fisher Scientific, Waltham, MA, USA). The reactions were run in 96-well plates, in a final volume of 100 μL, in 50 mM potassium phosphate buffer (pH 7.0) containing 50 μg of cell lysate proteins, 1 mM EDTA, 50 mM KCl, 0.2 mg/mL BSA, and 0.25 mM NADPH. […] Enzyme kinetics were monitored on an automated microplate reader (MultiskanSky, Thermo Fisher Scientific, Waltham, MA, USA) by measuring the increase in absorbance at 412 nm for 20 min. […]

[4] = test system: A-172 cells; assay: MTT cell viability assay, A-172; assay type: cell-based; conditions: Homo sapiens, 72 h treatment
Description: Cell viability was measured using the colorimetric MTT assay based on the reduction of MTT into formazan dye. Cell lines were seeded into 96-well cell culture plates (4000 cells/well) in appropriate medium. After overnight incubation, cells were treated with increasing concentrations of 1, 2, 3, 4, 5, and 6 (0.5, 1, 2, 4, and 8 µM). After 72 h treatment, MTT solution (4 mg/mL) was added and plates were incubated at 37 °C with 5% CO2 for 3 h. After incubation, formazan crystals were dissolved using 100 µL DMSO, resulting in a purple color. The absorbance was measured at 570 nm with a reference wavelength of 690 nm using an automated microplate reader (MultiskanSky, Thermo Scientific, USA). The IC50 values were determined by non-linear regression analysis in GraphPad Prism 8.0.2. software (GraphPad Software, Boston, MA, USA).

[5] = test system: ASK1 protein in U87 cells; assay: ASK1 protein expression by flow cytometry, U87; assay type: cell-based, human; conditions: U87, 2 µM and 4 µM, 48 h
Description: as §1

[6] = test system: antioxidant-related gene mRNA in U87-TxR cells; assay: RT-qPCR of oxidative-stress-related genes, U87-TxR; assay type: cell-based, human; conditions: 4 µM, 24 h; for increase in GPX1 mRNA expression: relative to untreated control
Description: Prior to RNA isolation, U87 and U87-TxR cell were treated with 4 μM 2 and 5 for 24 h. TRIzol® Reagent was used to isolate total RNA according to manufacturer’s instructions. RNA concentration was determined with NanoPhotometer N60 (Implen GmbH, Munchen, Germany). Quality was determined using electrophoresis on a 1.3% agarose gel. Reverse transcription reaction was carried out using High-Capacity cDNA Reverse Transcription Kit with RNase Inhibitor.
Quantitative RT-PCR (RT-qPCR) was performed to evaluate mRNA expression levels of CAT, GSR, SOD2, GPX1, GPX4, GST, TRX1, and TRXR1, with ACTB used as the reference gene. Reactions were carried out using Maxima SYBR Green/ROX qPCR Master Mix (Thermo Fisher Scientific, Waltham, MA, USA) in the QuantStudio™ 3 Real-Time PCR System (Applied Biosystems by Thermo Fisher Scientific). Thermocycling conditions consisted of an initial incubation at 50 °C for 5 min, followed by denaturation at 95 °C for 10 min and then 40 cycles of amplification with denaturation at 95 °C for 15 s and annealing/extension at 60 °C for 60 s. Relative gene expression levels were calculated using the ΔΔCt method, normalizing target gene expression to ACTB. All reactions were performed in technical triplicates.

SMILES	ASK1 protein levels [1]	P-gp interaction [2]	TrxR enzyme activity [3]	IC50 [4] [µM]	ASK1 level [5]	CAT mRNA expression levels [6]	GSTP gene expression [6]	mRNA expression of SOD2, GSR, and GPX4 [6]	increase in GPX1 mRNA expression [6] [fold]	ASK1 expression ([1]; 4 µM, not statistically significant)
CC1(C)CCC[C@]2(C)[C@@H](CC[C@@](C)(O)/C=C/c3ccc(CNCCCCCCCCNCC45CC6CC(CC(C6)C4)C5)s3)[C@](C)(O)CC[C@@H]12 [Compound 2]	increased	P-gp inhibitor	do not inhibit TrxR enzyme activity	2.05 ± 0.37	remained unchanged	remained unchanged	significantly increased	increase	1.9	–
CC1(C)CCC[C@]2(C)[C@@H](CC[C@@](C)(O)/C=C/c3ccc(CNCCCCCCCCNCC45CC6CC(CC(C6)C4)C5)o3)[C@](C)(O)CC[C@@H]12 [Compound 5]	increased	P-gp substrate	do not inhibit TrxR enzyme activity	4.74 ± 0.129	remained unchanged	remained unchanged	significantly increased	increase	1.5	slightly increased
